The values that follow come from ChEMBL document CHEMBL1201862, “PubChem BioAssay data set” (2004).

Test [1] can be described thus: HepG2 cell cytotoxicity, dose response, cytotoxicity control for non-replicating M. tuberculosis project (AID 489018). The class given is functional. To be noted: Mycobacterium tuberculosis.
A short description of test [2]: Vero E6 cell cytotoxicity, dose response, cytotoxicity control for non-replicating M. tuberculosis project, secondary assay (AID 492998). The test is classed as functional, VeroE6. The following applies: Vero C1008.
A further test can be described thus: cells. The test is classed as functional.
Test [3] is described as follows: THP-1 cell cytotoxicity, dose response, cytotoxicity control for non-replicating M. tuberculosis project (AID 489025). The class given is functional.
In another test the target is T1, Coagulation factor XII (Homo sapiens, UniProt P00748).
T1 sequence (P00748 whole entry): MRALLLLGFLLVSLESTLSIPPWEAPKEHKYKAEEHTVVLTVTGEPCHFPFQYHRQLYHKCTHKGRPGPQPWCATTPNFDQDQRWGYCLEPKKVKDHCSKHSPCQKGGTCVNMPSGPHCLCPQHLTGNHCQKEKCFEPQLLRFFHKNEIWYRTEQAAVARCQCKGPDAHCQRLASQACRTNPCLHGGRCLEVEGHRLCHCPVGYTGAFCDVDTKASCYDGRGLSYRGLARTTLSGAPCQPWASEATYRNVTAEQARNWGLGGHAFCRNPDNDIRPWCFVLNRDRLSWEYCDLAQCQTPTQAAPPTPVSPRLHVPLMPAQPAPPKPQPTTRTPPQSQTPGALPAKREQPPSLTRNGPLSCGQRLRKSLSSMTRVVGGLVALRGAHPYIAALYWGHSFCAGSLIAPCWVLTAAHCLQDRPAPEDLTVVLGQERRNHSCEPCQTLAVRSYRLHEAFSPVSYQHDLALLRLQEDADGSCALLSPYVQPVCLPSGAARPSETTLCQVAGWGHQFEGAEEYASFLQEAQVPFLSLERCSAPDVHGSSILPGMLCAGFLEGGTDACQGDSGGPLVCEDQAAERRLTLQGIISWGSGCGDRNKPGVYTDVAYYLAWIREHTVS
The test is described as follows: activated coagulation factor XII inhibitor potency, concentration-effect curve, cell-free (AID 716). The class given is functional.

The nature of test [4]: MIN6 cell viability loss – mouse insulinoma, cytotoxicity control, dose response (AID 2122).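 Note: confirmatory high-throughput counterscreen run to flag cytotoxic compounds.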 The test is classed as functional.
A short description of test [5]: Trypanosoma cruzi growth suppression in host cells – NIH3T3 host cells, beta-gal luminescence, confirmation (AID 2044).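 Note: intracellular parasites grown in NIH/3T3 mouse fibroblasts as host cells; luminescent beta-galactosidase reporter signal from transgenic T. cruzi replicating inside host cells; inhibitors lower the luminescence signal.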 The class given is functional, cell-based.
Test [6] is described as follows: reduction of Shn3 3'UTR-driven luciferase in osteoblasts – cell-based, Clone20 osteoblasts, firefly luciferase, cherry-picked, dose response (AID 624132).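 Note: firefly luciferase luminescence from reporter carrying the Shn3 3'UTR in osteoblasts.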 The test is classed as functional.
Test [7] is described as follows: non-specific 3'UTR reporter inhibition in Clone20-Shn3RL – cell-based, Renilla luciferase, cherry-picked, counter-screen for Shn3 inhibitor project, dose response (AID 624133). The test is classed as functional. In general terms: A counterscreen serves to expose hits that act by an unwanted route or on another target.
Test [8] in a line: loss of viability in HepG2 cells – cell-based, CellTiter-Glo, cherry-picked, cytotoxicity control for Shn3 inhibitor project, dose response (AID 624134). The test is classed as functional. On the technique in general: Cellular ATP, detected with luciferase, serves as a proxy for viable cell number.
Test [9] can be described thus: NIH3T3 cell viability loss – ATP luminescence, mouse fibroblasts, counter-screen, dose response (AID 2010).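 Note: cells exposed to compound for about 90 hours before reading.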 The class given is functional, cell-based.
Test [10] is described as follows: decrease of insulin promoter-GFP reporter – imaging, high-content screening, mouse beta cells (AID 1628). The test is classed as functional. The following applies: MIN6.
Test [11] concerns Streptococcus sp. 'group A'. The test is described as follows: Streptococcus pyogenes SK(-)GAS viability under kanamycin – luminescence, BacTiterGlo, confirmation, counter-screen for streptokinase expression inhibitor project, dose response (AID 1900). The test is classed as functional, organism-based.
In another test the test system is Streptococcus. The test is described as follows: GAS UMAA2166 growth inhibition – luminescence, BacTiterGlo, counter-screen for streptokinase expression inhibitor project, dose response (AID 1915).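 Note: potency for reduction of bacterial viability or growth.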 The class given is functional, organism-based.
In the next test the target is T2, Streptokinase A (Streptococcus pyogenes serotype M1, UniProt P10520).
T2 sequence (P10520 whole entry): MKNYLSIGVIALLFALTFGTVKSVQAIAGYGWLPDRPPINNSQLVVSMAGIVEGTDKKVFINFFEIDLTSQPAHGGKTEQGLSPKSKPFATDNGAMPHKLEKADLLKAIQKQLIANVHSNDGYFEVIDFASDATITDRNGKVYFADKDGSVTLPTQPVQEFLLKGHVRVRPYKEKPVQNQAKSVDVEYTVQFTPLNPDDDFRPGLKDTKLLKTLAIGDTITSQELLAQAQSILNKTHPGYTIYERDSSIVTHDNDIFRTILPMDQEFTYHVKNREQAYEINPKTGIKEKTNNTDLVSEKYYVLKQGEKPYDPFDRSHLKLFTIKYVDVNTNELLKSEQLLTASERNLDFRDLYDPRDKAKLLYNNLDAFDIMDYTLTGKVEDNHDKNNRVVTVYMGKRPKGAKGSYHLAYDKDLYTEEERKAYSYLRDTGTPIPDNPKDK
The test is described as follows: viability-normalized secreted streptokinase activity reduction – plasminogen activation absorbance, OD405, dose response (AID 1914).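 Note: secreted streptokinase activity via plasminogen activation per viability signal from cell pellet.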 The test is classed as functional, Streptococcus pyogenes M1 GAS.

Test [12] in a line: Luminescence Cell-Based Dose Retest to Confirm Inhibitors of Cancer Stem Cells. [Related pubchem assays (depositor defined):AID2717, AID2721]. The class given is functional. To be noted: Homo sapiens.
The test system of a further test is Vero. The test is described as follows: mammalian cell viability reduction – secondary assay, cytotoxicity control for West Nile virus antiviral project, dose response (AID 1650). The test is classed as functional. The following applies: Chlorocebus sabaeus.
Test [13] addresses DNA dC->dU-editing enzyme APOBEC-3A (Homo sapiens, UniProt P31941). The test is described as follows: Dose Response confirmation of small molecule APOBEC3A DNA Deaminase Inhibitors via a fluorescence-based single-stranded DNA deaminase assay. [Related pubchem assays (depositor defined):AID493011, AID493024]. The class given is functional.
The target of test [14] is DNA dC->dU-editing enzyme APOBEC-3G (Homo sapiens, UniProt Q9HC16). The class given is functional.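 Note: Dose-response counterscreen measuring inhibition of APOBEC3G DNA deaminase activity, run while confirming APOBEC3A inhibitors.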
The subject of test [15] is HEK293. The test is described as follows: cells. The test is classed as functional, cell-based. To be noted: Homo sapiens.
The test system of test [16] is HEK293. The test is described as follows: cells. The test is classed as functional, cell-based. To be noted: Homo sapiens. This is another data set of the same source.
A short description of test [17]: HEK-293T viability loss after treatment – luminescence, T-cell screen hits, cytotoxicity control for TCR NF-kB inhibitor project, dose response (AID 489026).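 Note: cells exposed to compound about 14 hours before the viability readout.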 The class given is functional, cell-based.
The test system of test [18] is HEK293. The test is described as follows: inhibition of NOD1-driven NF-kB reporter – cell-based, luminescence, uHTS, primary screen (AID 1578). The class given is functional. To be noted: Homo sapiens.
Test [19] concerns HEK293. The test is described as follows: NOD2 signaling inhibitors in MDP-stimulated cells, cell-based, uHTS, luminescence (AID 2001). The test is classed as functional. The following applies: Homo sapiens.
Test [20] addresses Glucose-6-phosphate 1-dehydrogenase (Homo sapiens, UniProt P11413). The test is described as follows: inhibition of Homo sapiens G6PD, dose series – biochemical, fluorescence, selectivity assay for P. falciparum G6PD inhibitor project, dose response (AID 504792). The class given is functional.
For the next test, the target named is Paired box protein Pax-8 (Homo sapiens, UniProt Q06710). The test is described as follows: PAX8 transcriptional activity inhibition in RMG-I – RMG-I cells, luciferase, cherry-pick, dose response (AID 687027).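 Note: luciferase reporter driven by Pax8 target thyroperoxidase promoter measured by SteadyGlo luminescence.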 The test is classed as functional, cell-based.
Test [21] addresses Melanin-concentrating hormone receptor 1 (Homo sapiens, UniProt Q99705). The test is described as follows: Fluorescence-based counterscreen for antagonists of the G-protein coupled receptor 7 (GPR7): cell-based high throughput dose response assay to identify antagonists of the melanin-concentrating hormone receptor 1 (MCHR1). The class given is functional.

The structures appear in SMILES notation. The source made the active and inactive calls.

Chain of DNA dC->dU-editing enzyme APOBEC-3G (Q9HC16 whole entry): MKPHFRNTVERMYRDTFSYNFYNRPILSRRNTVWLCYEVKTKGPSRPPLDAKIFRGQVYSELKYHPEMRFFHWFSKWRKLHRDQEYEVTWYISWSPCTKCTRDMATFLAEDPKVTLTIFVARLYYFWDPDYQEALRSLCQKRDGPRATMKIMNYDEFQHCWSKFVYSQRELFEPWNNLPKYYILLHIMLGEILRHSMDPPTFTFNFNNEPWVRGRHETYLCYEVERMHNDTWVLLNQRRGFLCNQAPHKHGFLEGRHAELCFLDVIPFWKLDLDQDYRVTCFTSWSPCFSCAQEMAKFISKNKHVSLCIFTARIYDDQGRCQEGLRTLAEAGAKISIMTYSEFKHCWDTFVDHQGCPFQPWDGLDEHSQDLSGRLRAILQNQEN
Chain of DNA dC->dU-editing enzyme APOBEC-3A (P31941 whole entry): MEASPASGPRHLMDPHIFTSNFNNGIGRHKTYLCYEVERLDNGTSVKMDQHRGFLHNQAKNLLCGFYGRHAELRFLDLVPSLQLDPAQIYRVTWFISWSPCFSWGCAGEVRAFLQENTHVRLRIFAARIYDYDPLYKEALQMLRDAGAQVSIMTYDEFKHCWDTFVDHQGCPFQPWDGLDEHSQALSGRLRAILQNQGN
Chain of Glucose-6-phosphate 1-dehydrogenase (P11413 whole entry): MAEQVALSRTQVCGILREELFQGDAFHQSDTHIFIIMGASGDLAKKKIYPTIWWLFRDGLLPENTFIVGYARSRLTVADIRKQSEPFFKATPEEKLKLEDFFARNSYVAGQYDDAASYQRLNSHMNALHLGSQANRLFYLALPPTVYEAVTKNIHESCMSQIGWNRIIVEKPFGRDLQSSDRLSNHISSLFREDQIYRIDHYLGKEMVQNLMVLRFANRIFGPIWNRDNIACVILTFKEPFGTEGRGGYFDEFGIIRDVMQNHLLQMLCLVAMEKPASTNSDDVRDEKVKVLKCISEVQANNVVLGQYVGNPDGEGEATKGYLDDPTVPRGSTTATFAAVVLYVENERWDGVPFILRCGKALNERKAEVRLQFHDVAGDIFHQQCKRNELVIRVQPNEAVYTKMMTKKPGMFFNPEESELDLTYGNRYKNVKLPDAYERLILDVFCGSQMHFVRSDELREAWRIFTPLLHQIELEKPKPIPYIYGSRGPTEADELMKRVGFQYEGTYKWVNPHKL
Chain of Melanin-concentrating hormone receptor 1 (Q99705 whole entry): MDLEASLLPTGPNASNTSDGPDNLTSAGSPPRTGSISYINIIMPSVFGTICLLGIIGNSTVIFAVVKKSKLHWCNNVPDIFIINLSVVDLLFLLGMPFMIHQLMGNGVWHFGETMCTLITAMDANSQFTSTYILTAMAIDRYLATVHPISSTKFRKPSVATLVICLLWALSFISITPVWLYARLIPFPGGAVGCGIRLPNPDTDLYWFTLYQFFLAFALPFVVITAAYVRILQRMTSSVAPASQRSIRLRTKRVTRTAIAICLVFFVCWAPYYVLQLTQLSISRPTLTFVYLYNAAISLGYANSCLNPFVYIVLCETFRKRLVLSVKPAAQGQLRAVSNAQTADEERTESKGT
Chain of Paired box protein Pax-8 (Q06710 whole entry): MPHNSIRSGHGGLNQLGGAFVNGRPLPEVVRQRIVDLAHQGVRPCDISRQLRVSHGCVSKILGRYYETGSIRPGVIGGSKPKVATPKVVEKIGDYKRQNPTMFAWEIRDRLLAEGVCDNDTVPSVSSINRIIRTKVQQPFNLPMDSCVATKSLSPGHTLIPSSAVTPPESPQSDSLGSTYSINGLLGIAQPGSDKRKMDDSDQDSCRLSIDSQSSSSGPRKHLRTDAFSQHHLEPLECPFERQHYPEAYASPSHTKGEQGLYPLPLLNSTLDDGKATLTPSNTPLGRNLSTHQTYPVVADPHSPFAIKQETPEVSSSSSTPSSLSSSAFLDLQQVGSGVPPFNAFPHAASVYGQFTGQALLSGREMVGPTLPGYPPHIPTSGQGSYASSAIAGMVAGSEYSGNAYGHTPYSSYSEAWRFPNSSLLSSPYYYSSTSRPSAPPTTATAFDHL

On to `Oc1nc(-c2ccccn2)nc2ccccc12`, for which the half-maximal cytotoxic concentration (CC50) is > 20 µM (active) in test [1], 19.6 µM (active) in test [2] and > 40 µM (active) in test [3]. Moreover, in the test “cells”, the IC50 is 3.56 µM (active).

Consider `O=C(CCC1COc2ccccc2O1)NCc1ccco1` (stereo not drawn), for which the IC50 at Coagulation factor XII was > 50 µM (inactive).

In the case of `CC(C)(C)c1ccc(CN(Cc2ccccc2)C(c2ccccn2)c2nnnn2C(C)(C)C)cc1` (stereo not drawn), the values for the IC50 in [4] and in [10] were 3.84 µM (active) and 3.07 µM (active), respectively. The 50% effective concentration (EC50) in test [5] was 1.76 µM (active); in [9], > 60 µM (not active). For the same molecule, the AC50 is 13.5 µM (active) in [6], 24.2 µM (active) in test [7] and 67.9 µM (active) in test [8].

Take `CC(=O)NCC(=O)OCC(=O)Nc1ccc(C(C)=O)cc1`: the IC50 on Coagulation factor XII is > 50 µM (inactive).

Turning to `COc1ccc(-n2c(Cc3cccs3)nnc2SCC(=O)Nc2ccc3c(c2)OCCO3)cc1`, the IC50 on Coagulation factor XII is > 50 µM (inactive).

With `CC(=O)[C@@]1(O)C(C)CC2C3C=C(C)C4=Cc5c(cnn5-c5ccccc5)C[C@]4(C)C3C(O)C[C@@]21C` (stereo partly drawn), the half-maximal effective concentration (EC50) in [11] was 5.57 µM (active); in the test with Streptococcus, > 150 µM (not active); on Streptokinase A, 2.97 µM (active). Also, the results for the IC50 in test [4] and in [10] were > 16 µM (inactive) and < 0.25 µM (active), respectively. Moreover, the AC50 in test [12] was 1.15 µM (active). Besides, in the test with Vero, the CC50 was > 100 µM (active).

Take `CCN1CCN(c2ccc(S(=O)(=O)N3CCOCC3)cc2NC(=O)C(C)Oc2ccc(Cl)cc2)CC1` (stereo not drawn): the IC50 was 9.56 µM (active) in test [13] and 14.7 µM (active) in [14].

With `O=C(c1ccco1)N1CCN(S(=O)(=O)c2ccc(Oc3ccccc3)cc2)CC1`, on Coagulation factor XII, the IC50 is > 50 µM (inactive).

As to `CCOC(=O)N1CCC(N(C(=O)Nc2ccc(Cl)c(Cl)c2)C(C)CC)CC1` (stereo not drawn), the results for the concentration for half-maximal inhibition (IC50) in test [4] and in test [10] were 2.45 µM (active) and 2.7 µM (active), respectively.

Consider `O=C(Nc1ccc(Cc2ccncc2)cc1)c1ccc(S(=O)(=O)N2CCCC2)cc1`, for which the IC50 in the test on HEK293 [15] is 4.59 µM (active); in the test on HEK293 [16] it was 13.6 µM (active); in test [17] it was 33.4 µM (inactive); in the test with HEK293 [19] it was 5.81 µM (active). In addition, the 50% effective concentration (EC50) in the test with HEK293 [18] was 2.66 µM (active).

For the molecule `CCOc1ccccc1C=NNC(=O)CCCCC(=O)NN=Cc1ccccc1OCC`, in [20], the IC50 was > 80 µM (inactive).

With `Nn1c(SCC(=O)Nc2ccc3c(c2)OCCO3)nnc(CCC(=O)O)c1=O`, the 50% inhibitory concentration (IC50) in [13] was 9.11 µM (active); in [14], 8.47 µM (active).

In the case of `CN1CCCN(S(=O)(=O)c2ccccc2)CC1`, the 50% inhibitory concentration (IC50) was 4.85 µM (active) in [13] and 5.93 µM (active) in test [14].

As to `O=C(NC12CC3CC(CC(C3)C1)C2)c1ccc([N+](=O)[O-])o1`, the EC50 was 1.2 µM (active) in [11], 7.69 µM (active) in the test on Streptococcus and > 150 µM (not active) on Streptokinase A. In addition, the AC50 at Paired box protein Pax-8 is 4.39 µM (active); in test [12] it was 5.23 µM (active). In addition, the half-maximal cytotoxic concentration (CC50) in [1] was 10.4 µM (active); in [2], 14.6 µM (active); in [3], 12.4 µM (active). For the same molecule, the IC50 in “cells” is 7.14 µM (active).

For the molecule `CCOC(=O)/C(CCCN(CC)CC)=N\O`, the concentration for half-maximal inhibition (IC50) in [13] is 1.35 µM (active); in [14], 1.26 µM (active).

In the case of `Cc1cc([N+](=O)[O-])cc(C)c1OCC(=O)N/N=C/c1ccc(OC(=O)c2ccccc2)cc1`, the half-maximal inhibitory concentration (IC50) in test [21] was > 43.8 µM (not active).

One may read the CC50 as the concentration that lowers cell viability or growth by half. Usually IC50 stands for the concentration needed to halve the response being measured. What is called EC50 is the midpoint of the concentration-response curve. What is called AC50 is the midpoint of the concentration-response curve, whichever way the signal moves.
